ChEMBL document CHEMBL4840377, “Colletofragarone A2 and Colletoins A-C from a Fungus Colletotrichum sp. Decrease Mutant p53 Levels in Cells” (J Nat Prod, 2021)

Tests used:
[1] = Reduction in p53 R175H mutant protein level in human SAOS-2 cells assessed as ratio of test compound fluorescence to control fluorescence at 2 uM measured after 2 hrs by Hoechst 33342 staining based immunofluorescence assay; type: functional
SAOS-2 = assay: Cytotoxicity against human SAOS-2 cells harbouring p53 R175H mutant incubated for 3 days by MTT assay; type: functional, cell-based; settings: SAOS-2, 72 h

C/C=C/C=C\C=C\C1=C2C(=O)O[C@@H](C)CCCC[C@@H]3C(=O)C=C[C@H](O1)[C@H]23
Ratio [1]: 0.57 | IC50 (SAOS-2): 0.36 µM

C/C=C/C=C/C=C/C1=C2C(=O)O[C@@H](C)C[C@@H](O)C[C@@H](O)[C@H]3C(=O)C[C@@H](O)[C@H](O1)[C@H]23
IC50 (SAOS-2): 12 µM

C/C=C/C=C/C=C/C1=C2C(=O)O[C@@H](C)C[C@@H](O)C[C@@H](O)[C@@H]3C(=O)C=C[C@H](O1)[C@H]23
Ratio [1]: 0.4 | IC50 (SAOS-2): 0.35 µM

C/C=C/C=C/C=C/C1=C2C(=O)O[C@@H](C)C[C@@H](O)C[C@@H](O)[C@@H]3C(=O)C[C@@H](O)[C@H](O1)[C@H]23
IC50 (SAOS-2): 21 µM
